The values that follow come from PubChem BioAssay AID2060356 (Molecular Pharmacology Branch, DTP, NCI, 2025).

The subject of this assay is PDC tumor spheroids with HUVEC/MSC, viability. The experiment in a line: Anticancer human tumor 439559-082-T-J2-PDC patient-derived colon adenocarcinoma cell line growth inhibition [TAK]. The note with it: for viability, T/C: stronger effect = lower value. In short, it runs like this: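 Tumor cells were grown as spheroids with HUVEC and hMSC (60:25:15) and treated with targeted agents combined with TAK-243 or ipatasertib. Drugs were tested in half-log steps down from near the clinical Cmax, or from 10 microM where Cmax was unknown.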

The mark [1] stands for this setting: curve of first compound, second compound 0.3 µM.
Setting [2] is: curve of first compound, second compound 0.949 µM.
Where [3] appears, read: curve of first compound, second compound 3 µM.
[4] abbreviates: curve of first compound, second compound 9.49 µM.
Setting [5] is: curve of first compound, second compound 30 µM.
[6] abbreviates: second compound 0.3 µM, first compound 0.0316 µM.
Setting [7] is: second compound 0.3 µM, first compound 0.1 µM.
The mark [8] stands for this setting: second compound 0.949 µM, first compound 0.0316 µM.
Setting [9] is: second compound 0.949 µM, first compound 0.1 µM.
[10] abbreviates: second compound 3 µM, first compound 0.0316 µM.
The mark [11] stands for this setting: second compound 3 µM, first compound 0.1 µM.
Setting [12] is: second compound 9.49 µM, first compound 0.0316 µM.
Setting [13] is: second compound 9.49 µM, first compound 0.1 µM.
Where [14] appears, read: second compound 30 µM, first compound 0.0316 µM.
[15] abbreviates: second compound 30 µM, first compound 0.1 µM.

“And” between values parts separate entries of the source, which are not always exact repeats. Equal entries are not always repeated.
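Further: spheroids exposed to drugs for seven days before readout.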

Broadly, the IC50 is the concentration that inhibits the measured activity by half. For orientation: viability, T/C means the ratio of treated to control. As for `CC(C)(C)c1nc(-c2cccc(NS(=O)(=O)c3c(F)cccc3F)c2F)c(-c2ccnc(N)n2)s1` + CC(C)NCC(C(=O)N1CCN(c2ncnc3c2C(C)CC3O)CC1)c1ccc(Cl)cc1, the IC50 was more than 10000 nM under setting [1]; more than 10000 nM under setting [2]; more than 10000 nM under setting [3]; more than 10000 nM under setting [4]; more than 10000 nM under setting [5]. Besides, the viability, T/C was 123% under setting [6]; 108% under setting [7]; 106% (second compound 0.3 µM, first compound 0.316 µM); 110% (second compound 0.3 µM, first compound 1 µM); 113% (second compound 0.3 µM, first compound 3.16 µM); 96.3% (second compound 0.3 µM, first compound 10 µM). For the same compound, the viability, T/C is, setting by setting: under setting [8], 108%; under setting [9], 113%; (second compound 0.949 µM, first compound 0.316 µM) 102%; (second compound 0.949 µM, first compound 1 µM) 111%; (second compound 0.949 µM, first compound 3.16 µM) 106%; (second compound 0.949 µM, first compound 10 µM) 96.2%. Further, the viability, T/C under setting [10] was 104%; the viability, T/C under setting [11] is 107%; the viability, T/C (second compound 3 µM, first compound 0.316 µM) was 106%; the viability, T/C (second compound 3 µM, first compound 1 µM) was 96.9%; the viability, T/C (second compound 3 µM, first compound 3.16 µM) was 103%; the viability, T/C (second compound 3 µM, first compound 10 µM) is 93.8%. The viability, T/C was 99.8% under setting [12]; 107% under setting [13]; 102% (second compound 9.49 µM, first compound 0.316 µM); 90.5% (second compound 9.49 µM, first compound 1 µM); 96% (second compound 9.49 µM, first compound 3.16 µM); 99.5% (second compound 9.49 µM, first compound 10 µM). Moreover, the viability, T/C by setting is: under setting [14], 93.5%; under setting [15], 101%; (second compound 30 µM, first compound 0.316 µM) 96.2%; (second compound 30 µM, first compound 1 µM) 99.4%; (second compound 30 µM, first compound 3.16 µM) 86.8%; (second compound 30 µM, first compound 10 µM) 94%.

Take `CC(C)CC(NC(=O)CNC(=O)c1cc(Cl)ccc1Cl)B1OC(=O)CC(CC(=O)O)(C(=O)O)O1` (centres undefined) + CC(C)NCC(C(=O)N1CCN(c2ncnc3c2C(C)CC3O)CC1)c1ccc(Cl)cc1: the IC50 is, setting by setting: under setting [1], more than 100 nM; under setting [2], more than 100 nM; under setting [3], more than 100 nM; under setting [4], more than 100 nM; under setting [5], more than 100 nM. Moreover, the viability, T/C (second compound 0.3 µM, first compound 0.000316 µM) was 98.8%; the viability, T/C (second compound 0.3 µM, first compound 0.001 µM) is 105%; the viability, T/C (second compound 0.3 µM, first compound 0.00316 µM) is 96%; the viability, T/C (second compound 0.3 µM, first compound 0.01 µM) was 94.4%; the viability, T/C under setting [6] was 79.7%; the viability, T/C under setting [7] is 57.7%. Besides, the viability, T/C runs as follows: (second compound 0.949 µM, first compound 0.000316 µM) 117%; (second compound 0.949 µM, first compound 0.001 µM) 107%; (second compound 0.949 µM, first compound 0.00316 µM) 102%; (second compound 0.949 µM, first compound 0.01 µM) 98.4%; under setting [8], 79.6%; under setting [9], 61.1%. For the same compound, the viability, T/C (second compound 3 µM, first compound 0.000316 µM) was 107%; the viability, T/C (second compound 3 µM, first compound 0.001 µM) is 98.8%; the viability, T/C (second compound 3 µM, first compound 0.00316 µM) was 88.5%; the viability, T/C (second compound 3 µM, first compound 0.01 µM) was 98.7%; the viability, T/C under setting [10] is 75.5%; the viability, T/C under setting [11] is 58.4%. Besides, the viability, T/C by setting is: (second compound 9.49 µM, first compound 0.000316 µM) 95.7%; (second compound 9.49 µM, first compound 0.001 µM) 96.7%; (second compound 9.49 µM, first compound 0.00316 µM) 93%; (second compound 9.49 µM, first compound 0.01 µM) 89%; under setting [12], 70.4%; under setting [13], 56.5%. The viability, T/C by setting is: (second compound 30 µM, first compound 0.000316 µM) 85.7%; (second compound 30 µM, first compound 0.001 µM) 90.5%; (second compound 30 µM, first compound 0.00316 µM) 87%; (second compound 30 µM, first compound 0.01 µM) 83.3%; under setting [14], 75.3%; under setting [15], 57.5%.

`CC(=O)Nc1cccc(-n2c(=O)n(C3CC3)c(=O)c3c(Nc4ccc(I)cc4F)n(C)c(=O)c(C)c32)c1` + CC(C)NCC(C(=O)N1CCN(c2ncnc3c2C(C)CC3O)CC1)c1ccc(Cl)cc1: the IC50 by setting is: under setting [1], more than 30 nM; under setting [2], more than 30 nM; under setting [3], more than 30 nM; under setting [4], more than 30 nM; under setting [5], more than 30 nM. In addition, the viability, T/C (second compound 0.3 µM, first compound 94.9 pM) was 105%; the viability, T/C (second compound 0.3 µM, first compound 0.0003 µM) was 97.6%; the viability, T/C (second compound 0.3 µM, first compound 0.000949 µM) is 85.8%; the viability, T/C (second compound 0.3 µM, first compound 0.003 µM) is 74.3%; the viability, T/C (second compound 0.3 µM, first compound 0.00949 µM) was 70.5%; the viability, T/C (second compound 0.3 µM, first compound 0.03 µM) was 62.1%. The viability, T/C was 90.4% (second compound 0.949 µM, first compound 94.9 pM); 89.7% (second compound 0.949 µM, first compound 0.0003 µM); 93.9% (second compound 0.949 µM, first compound 0.000949 µM); 75.1% (second compound 0.949 µM, first compound 0.003 µM); 66.6% (second compound 0.949 µM, first compound 0.00949 µM); 62.2% (second compound 0.949 µM, first compound 0.03 µM). Also, the viability, T/C was 102% (second compound 3 µM, first compound 94.9 pM); 98.8% (second compound 3 µM, first compound 0.0003 µM); 76.8% (second compound 3 µM, first compound 0.000949 µM); 77.2% (second compound 3 µM, first compound 0.003 µM); 72.9% (second compound 3 µM, first compound 0.00949 µM); 61% (second compound 3 µM, first compound 0.03 µM). The viability, T/C reads like this: (second compound 9.49 µM, first compound 94.9 pM) 88.7%; (second compound 9.49 µM, first compound 0.0003 µM) 92.9%; (second compound 9.49 µM, first compound 0.000949 µM) 84.4%; (second compound 9.49 µM, first compound 0.003 µM) 80.5%; (second compound 9.49 µM, first compound 0.00949 µM) 66.9%; (second compound 9.49 µM, first compound 0.03 µM) 55.1%. Further, the viability, T/C was 89% (second compound 30 µM, first compound 94.9 pM); 91.8% (second compound 30 µM, first compound 0.0003 µM); 81.7% (second compound 30 µM, first compound 0.000949 µM); 73.5% (second compound 30 µM, first compound 0.003 µM); 69.2% (second compound 30 µM, first compound 0.00949 µM); 54.8% (second compound 30 µM, first compound 0.03 µM).

`CC(=O)Nc1cccc(-n2c(=O)n(C3CC3)c(=O)c3c(Nc4ccc(I)cc4F)n(C)c(=O)c(C)c32)c1`: the viability, T/C was 105% and 111% (compound 94.9 pM); 101% and 94.9% (compound 0.0003 µM); 91% and 88.8% (compound 0.000949 µM); 73.6% and 75.2% (compound 0.003 µM); 72.6% and 75.3% (compound 0.00949 µM); 63.9% and 60.4% (compound 0.03 µM). Besides, the IC50 (curve of compound) is more than 30 nM.

On to `CC(C)n1nc(-c2ccc3oc(N)nc3c2)c2c(N)ncnc21`, for which the viability, T/C (compound 0.000316 µM) was 106% and 115%; the viability, T/C (compound 0.001 µM) is 99.2% and 110%; the viability, T/C (compound 0.00316 µM) is 97.8% and 105%; the viability, T/C (compound 0.01 µM) was 83.5% and 85.3%; the viability, T/C (compound 0.0316 µM) is 76% and 76.8%; the viability, T/C (compound 0.1 µM) is 69.8% and 74.7%. For the same compound, the IC50 (curve of compound) was more than 100 nM.
